Measurements published in patent publication US12662491B2 (Redona Therapeutics, Inc., priority 2020, dated 2026).

What follows are compounds tested against T1, Zcchc11 enzyme (Homo sapiens, UniProt Q5TAX3) (assay: TUTase assay (Zcchc11 assay, Lin28a-dependent polyuridylation of pre-let-7)). Conditions: Lin28a-dependent Zcchc11 (Z11) TUTase activity; read-out: Potency Lin28a-dep Z11 IC50.
T1 construct: made in house; host or cells: HEK293 cells (Zcchc11); E. coli Rosetta II (LIN28A)
T1 sequence (Q5TAX3 212-1420): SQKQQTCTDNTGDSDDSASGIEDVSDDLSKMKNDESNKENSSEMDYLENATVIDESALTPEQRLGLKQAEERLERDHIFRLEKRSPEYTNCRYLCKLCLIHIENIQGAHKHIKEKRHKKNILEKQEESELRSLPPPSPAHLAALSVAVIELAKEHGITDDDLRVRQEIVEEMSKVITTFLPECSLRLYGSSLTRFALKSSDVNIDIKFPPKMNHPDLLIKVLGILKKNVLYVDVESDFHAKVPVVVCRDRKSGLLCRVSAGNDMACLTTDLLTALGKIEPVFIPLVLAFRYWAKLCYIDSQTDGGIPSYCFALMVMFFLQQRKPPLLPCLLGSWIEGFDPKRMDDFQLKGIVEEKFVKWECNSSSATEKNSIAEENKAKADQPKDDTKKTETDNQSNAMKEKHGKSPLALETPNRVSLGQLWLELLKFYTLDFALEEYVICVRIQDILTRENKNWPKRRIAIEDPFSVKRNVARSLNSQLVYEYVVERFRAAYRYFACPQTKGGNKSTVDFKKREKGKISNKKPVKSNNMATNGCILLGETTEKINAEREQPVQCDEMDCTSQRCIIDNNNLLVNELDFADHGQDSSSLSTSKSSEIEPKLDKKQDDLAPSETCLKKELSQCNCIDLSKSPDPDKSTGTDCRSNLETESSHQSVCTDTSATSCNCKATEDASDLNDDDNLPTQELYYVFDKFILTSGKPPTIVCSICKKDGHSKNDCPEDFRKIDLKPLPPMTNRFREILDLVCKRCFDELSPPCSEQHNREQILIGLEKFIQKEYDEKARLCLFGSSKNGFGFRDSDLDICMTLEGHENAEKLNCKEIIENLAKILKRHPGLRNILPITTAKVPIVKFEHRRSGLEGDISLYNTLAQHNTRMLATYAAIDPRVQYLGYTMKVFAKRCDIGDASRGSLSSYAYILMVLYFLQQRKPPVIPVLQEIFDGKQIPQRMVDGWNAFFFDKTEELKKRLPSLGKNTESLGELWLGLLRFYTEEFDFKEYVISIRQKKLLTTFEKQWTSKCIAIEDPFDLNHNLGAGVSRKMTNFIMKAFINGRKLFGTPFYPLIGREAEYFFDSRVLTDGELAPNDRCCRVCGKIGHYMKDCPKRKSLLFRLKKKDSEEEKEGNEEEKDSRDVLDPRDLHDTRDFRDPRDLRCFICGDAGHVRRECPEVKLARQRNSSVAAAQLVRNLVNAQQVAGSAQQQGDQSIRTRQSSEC
Assay type: biochemical
How it was run: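 Potency is measured as inhibition of LIN28A-driven U-tail addition to 2 nM pre-let-7 by 0.2 nM HEK293-derived Zcchc11 fragment with 5 uM UTP at room temperature. Tail growth appears as fluorescein quenching by an annealing rhodamine-A20 probe.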

Row | SMILES | IC50 [µM]
1 | Cc1cccnc1OC[C@H]1CCCN1c1cc2c(cc1F)c(=O)c(C(=O)O)cn2-c1ccc(F)c(O)c1 [Compound 121, (R)-6-fluoro-1-(4-fluoro-3-hydroxy-phenyl)-7-(2-(((3-methylpyridin-2-yl)oxy)methyl)pyrrolidin-1-yl)-4-oxo-1,4-dihydro-quinoline-3-carboxylic acid] | ≤ 1
2 | Cc1cccnc1OC[C@H]1CCCN1c1cc2c(cc1F)c(=O)c(C(=O)O)cn2-c1ccc(O)c(Cl)c1 [Compound 122, (R)-1-(3-chloro-4-hydroxy-phenyl)-6-fluoro-7-(2-(((3-methylpyridin-2-yl)oxy)methyl)pyrrolidin-1-yl)-4-oxo-1,4-dihydro-quinoline-3-carboxylic acid] | ≤ 1
3 | Cc1cccnc1OC[C@H]1CCCN1c1cc2c(cc1F)c(=O)c(C(=O)O)cn2-c1ccc(CO)cc1F [Compound 123, (R)-6-fluoro-1-(2-fluoro-4-(hydroxy-methyl)phenyl)-7-(2-(((3-methylpyridin-2-yl)oxy)methyl)pyrrolidin-1-yl)-4-oxo-1,4-dihydro-quinoline-3-carboxylic acid] | ≤ 1
4 | COCCOc1ccc(-n2cc(C(=O)O)c(=O)c3cc(F)c(N4CCC[C@@H]4COc4ncccc4C)cc32)cc1 [Compound 124, (R)-6-fluoro-1-(4-(2-methoxyethoxy)phenyl)-7-(2-(((3-methylpyridin-2-yl)oxy)methyl)pyrrolidin-1-yl)-4-oxo-1,4-dihydro-quinoline-3-carboxylic acid] | ≤ 1
5 | COCCOc1cnc(-n2cc(C(=O)O)c(=O)c3cc(F)c(N4CCC[C@@H]4COc4ncccc4C)cc32)cn1 [Compound 125, (R)-6-fluoro-1-(5-(2-methoxyethoxy)pyrazin-2-yl)-7-(2-(((3-methylpyridin-2-yl)oxy)methyl)pyrrolidin-1-yl)-4-oxo-1,4-dihydro-quinoline-3-carboxylic acid] | ≤ 1
6 | O=C(O)c1cn(-c2ccc(Cl)c(O)c2)c2cc(N3CCC[C@@H]3COc3ncccc3Cl)c(Cl)cc2c1=O [Compound 126, (R)-6-chloro-1-(4-chloro-3-hydroxy-phenyl)-7-(2-(((3-chloropyridin-2-yl)oxy)methyl)pyrrolidin-1-yl)-4-oxo-1,4-dihydro-quinoline-3-carboxylic acid] | ≤ 1
7 | O=C(O)c1cn(-c2ccc(O)c(F)c2)c2cc(N3CCC[C@@H]3COc3ncccc3Cl)c(Cl)cc2c1=O [Compound 127, (R)-6-chloro-7-(2-(((3-chloropyridin-2-yl)oxy)methyl)pyrrolidin-1-yl)-1-(3-fluoro-4-hydroxy-phenyl)-4-oxo-1,4-dihydro-quinoline-3-carboxylic acid] | ≤ 1
8 | O=C(O)c1cn(-c2ccc3[nH]ncc3c2)c2cc(N3CCC[C@@H]3COc3ncccc3Cl)c(Cl)cc2c1=O [Compound 128, (R)-6-chloro-7-(2-(((3-chloropyridin-2-yl)oxy)methyl)pyrrolidin-1-yl)-1-(1H-indazol-5-yl)-4-oxo-1,4-dihydro-quinoline-3-carboxylic acid] | ≤ 1
9 | CC1(n2cc(C(=O)O)c(=O)c3cc(Cl)c(N4CCC[C@@H]4COc4ncccc4Cl)cc32)CC1 [Compound 129, (R)-6-chloro-7-(2-(((3-chloropyridin-2-yl)oxy)methyl)pyrrolidin-1-yl)-1-(1-methylcyclo-propyl)-4-oxo-1,4-dihydro-quinoline-3-carboxylic acid] | ≤ 1
10 | O=C(O)c1cn(-c2ccc(F)c(O)c2)c2cc(N3CCC[C@@H]3COc3ncccc3Cl)c(Cl)cc2c1=O [Compound 130, (R)-6-chloro-7-(2-(((3-chloropyridin-2-yl)oxy)methyl)pyrrolidin-1-yl)-1-(4-fluoro-3-hydroxy-phenyl)-4-oxo-1,4-dihydro-quinoline-3-carboxylic acid] | ≤ 1
11 | O=C(O)c1cn(-c2ccc(O)c(Cl)c2)c2cc(N3CCC[C@@H]3COc3ncccc3Cl)c(Cl)cc2c1=O [Compound 131, (R)-6-chloro-1-(3-chloro-4-hydroxy-phenyl)-7-(2-(((3-chloropyridin-2-yl)oxy)methyl)pyrrolidin-1-yl)-4-oxo-1,4-dihydro-quinoline-3-carboxylic acid] | ≤ 1
12 | Cc1cccnc1OC[C@H]1CCCN1c1c(F)cc2c(=O)c(C(=O)O)cn(-c3ccc(O)cc3)c2c1F [Compound 132, (R)-6,8-difluoro-1-(4-hydroxy-phenyl)-7-(2-(((3-methylpyridin-2-yl)oxy)methyl)pyrrolidin-1-yl)-4-oxo-1,4-dihydro-quinoline-3-carboxylic acid] | ≤ 1
13 | Cc1cccnc1OC[C@H]1CCCN1c1nc2c(cc1F)c(=O)c(C(=O)O)cn2-c1ccc(O)cc1 [Compound 133, (R)-6-fluoro-1-(4-hydroxy-phenyl)-7-(2-(((3-methylpyridin-2-yl)oxy)methyl)pyrrolidin-1-yl)-4-oxo-1,4-dihydro-1,8-naphthyridine-3-carboxylic acid] | ≤ 1
14 | O=C(O)c1cn(-c2ccc(O)cc2)c2c(F)c(N3CCC[C@@H]3COc3ccccn3)c(F)cc2c1=O [Compound 134, (R)-6,8-difluoro-1-(4-hydroxy-phenyl)-4-oxo-7-(2-((pyridin-2-yloxy)methyl)pyrrolidin-1-yl)-1,4-dihydro-quinoline-3-carboxylic acid] | ≤ 1
15 | O=C(O)c1cn(-c2ccc(O)cc2F)c2cc(N3CCC[C@@H]3COc3cccnn3)c(F)cc2c1=O [Compound 135, (R)-6-fluoro-1-(2-fluoro-4-hydroxy-phenyl)-4-oxo-7-(2-((pyridazin-3-yloxy)methyl)pyrrolidin-1-yl)-1,4-dihydro-quinoline-3-carboxylic acid] | ≤ 1
16 | O=C(O)c1cn(-c2ccc(O)cc2F)c2cc(N3CCC[C@@H]3COc3ccncn3)c(F)cc2c1=O [Compound 136, (R)-6-fluoro-1-(2-fluoro-4-hydroxy-phenyl)-4-oxo-7-(2-((pyrimidin-4-yloxy)methyl)pyrrolidin-1-yl)-1,4-dihydro-quinoline-3-carboxylic acid] | 1 to 10
17 | COc1ccc(COc2ccc(-n3cc(C(=O)O)c(=O)c4cc(F)c(N5CCC[C@@H]5COc5ncccn5)cc43)c(F)c2)cc1 [Compound 137, (R)-6-fluoro-1-(2-fluoro-4-((4-methoxy-benzyl)oxy)phenyl)-4-oxo-7-(2-((pyrimidin-2-yloxy)methyl)pyrrolidin-1-yl)-1,4-dihydro-quinoline-3-carboxylic acid] | ≤ 1
18 | COc1ccc(COc2ccc(-n3cc(C(=O)O)c(=O)c4cc(F)c(N5CCC[C@@H]5COc5cccnn5)cc43)c(F)c2)cc1 [Compound 138, (R)-6-fluoro-1-(2-fluoro-4-((4-methoxy-benzyl)oxy)phenyl)-4-oxo-7-(2-((pyridazin-3-yloxy)methyl)pyrrolidin-1-yl)-1,4-dihydro-quinoline-3-carboxylic acid] | ≤ 1
19 | COc1ccc(COc2ccc(-n3cc(C(=O)O)c(=O)c4cc(F)c(N5CCC[C@@H]5COc5ccncn5)cc43)c(F)c2)cc1 [Compound 139, (R)-6-fluoro-1-(2-fluoro-4-((4-methoxy-benzyl)oxy)phenyl)-4-oxo-7-(2-((pyrimidin-4-yloxy)methyl)pyrrolidin-1-yl)-1,4-dihydro-quinoline-3-carboxylic acid] | ≤ 1
20 | CC(C)[C@H]1COC(=O)N1C[C@H]1CCCN1c1cc2c(cc1Cl)c(=O)c(C(=O)O)cn2C1(C)CC1 [Compound 140, 6-chloro-7-((R)-2-(((S)-4-isopropyl-2-oxooxazolidin-3-yl)methyl)pyrrolidin-1-yl)-1-(1-methylcyclo-propyl)-4-oxo-1,4-dihydro-quinoline-3-carboxylic acid] | > 50
